The results in this text go back to patent US9730929B2, “Substituted aminoimidazopyridazines” (BAYER INTELLECTUAL PROPERTY GMBH, priority 2011, dated 2017).

Broadly, the IC50 is the concentration at which inhibition is half-maximal.

T1 sequence (Q9BUB5 other isoform, or with tags, fused parts or gaps T344D): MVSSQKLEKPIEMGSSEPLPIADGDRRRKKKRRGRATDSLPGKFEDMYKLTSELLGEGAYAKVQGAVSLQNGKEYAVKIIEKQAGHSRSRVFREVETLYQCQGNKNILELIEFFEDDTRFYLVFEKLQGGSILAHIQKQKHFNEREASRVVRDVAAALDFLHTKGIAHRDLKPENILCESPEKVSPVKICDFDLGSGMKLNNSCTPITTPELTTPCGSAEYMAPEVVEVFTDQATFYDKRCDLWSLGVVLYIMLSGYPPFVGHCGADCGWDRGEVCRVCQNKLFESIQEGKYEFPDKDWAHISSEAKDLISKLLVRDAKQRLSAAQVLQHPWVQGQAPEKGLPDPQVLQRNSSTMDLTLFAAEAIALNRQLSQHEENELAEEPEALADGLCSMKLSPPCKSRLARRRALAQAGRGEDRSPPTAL

For one assay, the target named is T1, human full-length MKNK1 (Homo sapiens (Human), UniProt Q9BUB5, T344D). Briefly: MKNK1 kinase assay (TR-FRET, 10 μM ATP). Format: biochemical. As to conditions: ATP final conc. 10 μM; 15 min preincubation. The procedure:
MKNK1-inhibitory activity of compounds of the present invention was quantified employing the MKNK1 TR-FRET assay as described in the following paragraphs.
As substrate for the kinase reaction the biotinylated peptide biotin-Ahx-[…] (C-terminus in amide form) was used which can be purchased e.g. form the company Biosyntan (Berlin-Buch, Germany).
(§1) For the assay 50 nL of a 100 fold concentrated solution of the test compound in DMSO was pipetted into a black low volume 384 well microtiter plate (Greiner Bio-One, Frickenhausen, Germany), 2 μL of a solution of MKNK1 in aqueous assay buffer [50 mM HEPES pH 7.5, 5 mM magnesium chloride, 1.0 mM dithiothreitol, 0.005% (v/v) Nonidet-P40 (Sigma)] was added and the mixture was incubated for 15 min at 22° C. to allow pre-binding of the test compounds to the enzyme before the start of the kinase reaction. Then the kinase reaction was started by the addition of 3 μL of a solution of adenosine-tri-phosphate (ATP, 16.7 μM=>final conc. in the 5 μL assay volume is 10 μM) and substrate (0.1 μM=>final conc. in the 5 μL assay volume is 0.06 μM) in assay buffer and the resulting mixture was incubated for a reaction time of 45 min at 22° C. The concentration of MKNK1 was adjusted depending of the activity of the enzyme lot and was chosen appropriate to have the assay in the linear range, typical concentrations were in the range of 0.05 μg/ml. The reaction was stopped by the addition of 5 μL of a solution of TR-FRET detection reagents (5 nM streptavidine-XL665 [Cisbio Bioassays, Codolet, France] and 1 nM anti-ribosomal protein 56 (pSer236)-antibody from Invitrogen [#44921G] and 1 nM LANCE EU-W1024 labeled ProteinG [Perkin-Elmer, product no. AD0071]) in an aqueous EDTA-solution (100 mM EDTA, 0.1% (w/v) bovine serum albumin in 50 mM HEPES pH 7.5).
The resulting mixture was incubated for 1 h at 22° C. to allow the formation of complex between the phosphorylated biotinylated peptide and the detection reagents. Subsequently the amount of phosphorylated substrate was evaluated by measurement of the resonance energy transfer from the Eu-chelate to the streptavidine-XL. Therefore, the fluorescence emissions at 620 nm and 665 nm after excitation at 350 nm were measured in a TR-FRET reader, e.g. a Rubystar (BMG Labtechnologies, Offenburg, Germany) or a Viewlux (Perkin-Elmer). The ratio of the emissions at 665 nm and at 622 nm was taken as the measure for the amount of phosphorylated substrate.
(In general: Time-resolved FRET reads energy transfer from a long-lived donor to a nearby acceptor.)
Compound `CCN(CCO)c1ccc2ncc(-c3cc4ccccc4o3)n2n1` [Example 1] yielded an IC50 of 7 nM. Still for that read-out and setting: the value for `CN(C[C@H](O)c1cccc(O)c1)c1ccc2ncc(-c3cc4ccccc4o3)n2n1` [Example 3] was 1 nM. `COc1cccc2oc(-c3cnc4ccc(N(C)C[C@H](O)c5cccc(O)c5)nn34)cc12` [Example 9, 3-[(1R)-1-Hydroxy-2-{[3-(4-methoxy-1-benzofuran-2-yl)imidazo[1,2-b]pyridazin-6-yl](methyl)amino}eth-yl]phenol] showed a half-maximal inhibitory concentration (IC50) of 2 nM.

`CN(CC(O)c1ccccc1)c1ccc2ncc(-c3cc4ccccc4o3)n2n1` (stereo not shown) [Example 10, 2-{[3-(1-Benzofuran-2-yl)imidazo[1,2-b]pyridazin-6-yl](methyl)amino}-1-phenylethanol] had an IC50 of 3 nM. Compared with the last compound, the IC50 is about 1.5-fold higher.

Another assay has as its target T1, human full-length MKNK1. Briefly: MKNK1 kinase high ATP assay (TR-FRET, 2 mM ATP). It is filed as biochemical. Particulars: ATP final conc. 2 mM; 15 min preincubation. The procedure: MKNK1-inhibitory activity at high ATP of compounds of the present invention after their preincubation with MKNK1 was quantified employing the TR-FRET-based MKNK1 high ATP assay as described in the following paragraphs.
As substrate for the kinase reaction the biotinylated peptide biotin-Ahx-[…] (C-terminus in amide form) was used, which can be purchased e.g. from the company Biosyntan (Berlin-Buch, Germany).
as §1, with “3.3 mM=>final” for “16.7 μM=>final”, “2 mM)” for “10 μM)”, “30” for “45”, “0.003 μg/mL.” for “0.05 μg/ml.”, “S6” for “56”, “4D0071])” for “AD0071])”
The resulting mixture was incubated for 1 h at 22° C. to allow the formation of complex between the phosphorylated biotinylated peptide and the detection reagents. Subsequently the amount of phosphorylated substrate was evaluated by measurement of the resonance energy transfer from the Eu-chelate to the streptavidine-XL.
`CN(CC(O)c1ccccc1)c1ccc2ncc(-c3cc4ccccc4o3)n2n1` (single isomer, unassigned; (+)) [Example 13, (+)-2-{[3-(1-Benzofuran-2-yl)imidazo[1,2-b]pyridazin-6-yl](methyl)amino}-1-phenylethanol]: 24 nM corresponded to half-maximal inhibition (IC50). In other words, the double-digit nanomolar range. In turn, `CN(CC(O)c1ccccc1)c1ccc2ncc(-c3cc4ccccc4o3)n2n1` (single isomer, unassigned; (-)) [Example 12, (−)-2-{[3-(1-Benzofuran-2-yl)imidazo[1,2-b]pyridazin-6-yl](methyl)amino}-1-phenylethanol] returned an IC50 of 4 nM. Same read-out and setting: with `CCN(CCO)c1ccc2ncc(-c3cc4ccccc4o3)n2n1` [Example 1] the figure was 20 nM; with `COc1cccc2oc(-c3cnc4ccc(N(C)C[C@H](O)c5cccc(O)c5)nn34)cc12` [Example 9, 3-[(1R)-1-Hydroxy-2-{[3-(4-methoxy-1-benzofuran-2-yl)imidazo[1,2-b]pyridazin-6-yl](methyl)amino}eth-yl]phenol], 4 nM; with `CN(CC(O)c1ccccc1)c1ccc2ncc(-c3cc4ccccc4o3)n2n1` (stereo not shown) [Example 10, 2-{[3-(1-Benzofuran-2-yl)imidazo[1,2-b]pyridazin-6-yl](methyl)amino}-1-phenylethanol], 4 nM. `CN(CC(O)c1cccnc1)c1ccc2ncc(-c3cc4ccccc4o3)n2n1` (stereo not shown) [Example 11, 2-{[3-(1-Benzofuran-2-yl)imidazo[1,2-b]pyridazin-6-yl](methyl)amino}-1-(pyridin-3-yl)ethanol] displayed a half-inhibitory concentration (IC50) of 2 nM.

Compound `CC(O)CN(C)c1ccc2ncc(-c3cc4ccccc4o3)n2n1` (stereo not shown) [Example 14, 1-{[3-(1-Benzofuran-2-yl)imidazo[1,2-b]pyridazin-6-yl](methyl)amino}propan-2-ol] registered a half-maximal inhibitory concentration (IC50) of 9 nM. Same read-out and setting: with `COc1nccc2oc(-c3cnc4ccc(N(C)CC(C)O)nn34)cc12` (stereo not shown) [Example 15, 1-{[3-(4-Methoxyfuro[3,2-c]pyridin-2-yl)imidazo[1,2-b]pyridazin-6-yl](methyl)amino}propan-2-ol] the figure was 10 nM; with `OC(CN(c1ccc2ncc(-c3cc4ccccc4o3)n2n1)C1CC1)c1ccccc1` (stereo not shown) [Example 16, 2-{[3-(1-Benzofuran-2-yl)imidazo[1,2-b]pyridazin-6-yl](cyclopropyl)amino}-1-phenylethanol], 24 nM; with `COc1nccc2oc(-c3cnc4ccc(N(C)C(C)CO)nn34)cc12` (stereo not shown) [Example 17, 2-{[3-(4-Methoxyfuro[3,2-c]pyridin-2-yl)imidazo[1,2-b]pyridazin-6-yl](methyl)amino}propan-1-ol], 26 nM. In turn, `OC(CN(c1ccc2ncc(-c3cc4ccccc4o3)n2n1)C1CC1)c1ccc(F)cc1` (stereo not shown) [Example 18, 2-{[3-(1-Benzofuran-2-yl)imidazo[1,2-b]pyridazin-6-yl](cyclopropyl)amino}-1-(4-fluorophenyl)ethanol] displayed a half-inhibitory concentration (IC50) of 42 nM. With `CC(CO)N(C)c1ccc2ncc(-c3cc4ccccc4o3)n2n1` (stereo not shown) [Example 19, 2-{[3-(1-Benzofuran-2-yl)imidazo[1,2-b]pyridazin-6-yl](methyl)amino}propan-1-ol], the 50% inhibitory concentration (IC50) was 47 nM. Still for that read-out and setting: the value for `CC(C)CN(CC(O)c1ccccc1)c1ccc2ncc(-c3cc4ccccc4o3)n2n1` (stereo not shown) [Example 20, 2-{[3-(1-Benzofuran-2-yl)imidazo[1,2-b]pyridazin-6-yl](isobutyl)amino}-1-phenylethanol] was 48 nM; that for `CC(C)N(CC(O)c1ccccc1)c1ccc2ncc(-c3cc4ccccc4o3)n2n1` (stereo not shown) [Example 21, 2-{[3-(1-Benzofuran-2-yl)imidazo[1,2-b]pyridazin-6-yl](isopropyl)amino}-1-phenylethanol] was 52 nM; that for `CN(CC(O)c1ccccc1)c1ccc2ncc(-c3cc4ccncc4o3)n2n1` (stereo not shown) [Example 22, 2-{[3-(Furo[2,3-c]pyridin-2-yl)imidazo[1,2-b]pyridazin-6-yl](methyl)amino}-1-phenylethanol] was 1 nM. On the same count and under the same terms, the value for `CN(CC(O)c1ccccc1)c1ccc2ncc(-c3cc4cnccc4o3)n2n1` (stereo not shown) [Example 23, 2-{[3-(Furo[3,2-c]pyridin-2-yl)imidazo[1,2-b]pyridazin-6-yl](methyl)amino}-1-phenylethanol] was 1 nM; that for `COc1nccc2oc(-c3cnc4ccc(N(C)CC(O)c5ccccc5)nn34)cc12` (stereo not shown) [Example 24, 2-{[3-(4-Methoxyfuro[3,2-c]pyridin-2-yl)imidazo[1,2-b]pyridazin-6-yl](methyl)amino}-1-phenylethanol] was 3 nM. Turning to `CCOc1nccc2oc(-c3cnc4ccc(N(C)CC(O)c5ccccc5)nn34)cc12` (stereo not shown) [Example 25, 2-{[3-(4-Ethoxyfuro[3,2-c]pyridin-2-yl)imidazo[1,2-b]pyridazin-6-yl](methyl)amino}-1-phenylethanol], the concentration for half-maximal inhibition (IC50) was found to be 5 nM.
